Source: US20020147136A1, “Compounds for targeting endothelial cells, compositions containing the same and methods for their use” (priority 2000, published 2002)
pIC50, pKd: −log10 of the molar value. Each block holds one compound with its values, some of them ahead of it.

What was measured:
Neuropilin-1/Fc = assay: Fluorescence polarization binding to NP-1/Fc; conditions: Oregon Green-labeled ligand 5-20 nM, 37° C., D-PBS pH 7.4; different experiments
Description: The ability of various compositions comprising TKPPR monomers or multimers to bind to NP-1/Fc and KDR-Fc was evaluated using FP. The binding studies of various Oregon Green (OG)-labeled compounds comprising TKPPR monomers or multimers and related compounds with Neuropilin-1/Fc, and KDR-Fc (both from R&D Systems), were carried out at 37° C. in D-PBS buffer (pH 7.4). FP values (mP) for each substrate was measured by titrating the ligand (5-20 nM) with receptor protein using a Jolley Research and Consulting FPM-1 fluorescence Polarization analyzer. In each of these experiments the observed polarization values were plotted against receptor concentration. The mP values for 100% binding of tracer labeled ligand to receptor protein was calculated using the software provided by the vendor.

NP-1/Fc = assay: Inhibition of 125I-VEGF165 binding to NP-1/Fc
Description: The ability of various compositions comprising TKPPR monomers or multimers to inhibit ^125I-VEGF binding to NP-1 was evaluated using NP-1/Fc. Competitive binding assays with microtiter plates coated with NP-1/Fc (R&D sytems) were performed using ^125I-VEGF165 as radioligand (Amersham Pharmacia Biotech Cat. No. IM274, Specific Activity: 1000-2500 Ci/mmol). […] Plates (Nunc MaxiSorp white opaque Microtiter plate [C-bottom, 437796]) were coated by incubating the wells with 75 µl of a solution containing 3 μlg/mL NP-1/Fc in D-PBS/0.1% NaAzide overnight at 4° C. after covering with sealing tape (Dynex, VWR Cat. No. 62402-931). […] All points were derived from triplicate wells, and for each set of replicates in NP-1/Fc-coated wells, a companion set in the absence of the receptor was included. For competitive binding, a series of unlabelled competitor concentrations were prepared in a 250 pM solution of ^1251-VEGF165 in assay buffer Solutions were added to 1.2 ml polypropylene tubes conforming to the microtiter format (Costar Cat. No. 29442-602), and transferred from these tubes to microtiter wells, without further dilution, using a multichannel pipettor. After addition of the appropriate solutions, microtiter plates were incubated at 4° C. for 2 hours. […] The plates were blotted dry and 25 μl deionized water and 100 μl scintillation fluid (Optiphase SuperMix, Wallac) were added to each well. Plates were agitated using a Plate Shaker (Hyperion, Cat. No. 4030-100F) for 3-5 minutes and were then counted using a Microplate Scintillation Counter (Wallac Microbeta Trilux) A set of serially diluted 125I-VEGF165 standard wells ranging from 200 to 0.04 pM were included with each experiment to aid in quantification of the amount of radiolabel bound.

KDR-Fc = biological target: T1, KDR-Fc (Homo sapiens, UniProt P35968); assay: Inhibition of 125I-VEGF165 binding to KDR-Fc; conditions: at the highest concentrations tested
T1 construct: purchased R&D Systems
T1 sequence (P35968 with tags, fused parts or gaps limits assumed): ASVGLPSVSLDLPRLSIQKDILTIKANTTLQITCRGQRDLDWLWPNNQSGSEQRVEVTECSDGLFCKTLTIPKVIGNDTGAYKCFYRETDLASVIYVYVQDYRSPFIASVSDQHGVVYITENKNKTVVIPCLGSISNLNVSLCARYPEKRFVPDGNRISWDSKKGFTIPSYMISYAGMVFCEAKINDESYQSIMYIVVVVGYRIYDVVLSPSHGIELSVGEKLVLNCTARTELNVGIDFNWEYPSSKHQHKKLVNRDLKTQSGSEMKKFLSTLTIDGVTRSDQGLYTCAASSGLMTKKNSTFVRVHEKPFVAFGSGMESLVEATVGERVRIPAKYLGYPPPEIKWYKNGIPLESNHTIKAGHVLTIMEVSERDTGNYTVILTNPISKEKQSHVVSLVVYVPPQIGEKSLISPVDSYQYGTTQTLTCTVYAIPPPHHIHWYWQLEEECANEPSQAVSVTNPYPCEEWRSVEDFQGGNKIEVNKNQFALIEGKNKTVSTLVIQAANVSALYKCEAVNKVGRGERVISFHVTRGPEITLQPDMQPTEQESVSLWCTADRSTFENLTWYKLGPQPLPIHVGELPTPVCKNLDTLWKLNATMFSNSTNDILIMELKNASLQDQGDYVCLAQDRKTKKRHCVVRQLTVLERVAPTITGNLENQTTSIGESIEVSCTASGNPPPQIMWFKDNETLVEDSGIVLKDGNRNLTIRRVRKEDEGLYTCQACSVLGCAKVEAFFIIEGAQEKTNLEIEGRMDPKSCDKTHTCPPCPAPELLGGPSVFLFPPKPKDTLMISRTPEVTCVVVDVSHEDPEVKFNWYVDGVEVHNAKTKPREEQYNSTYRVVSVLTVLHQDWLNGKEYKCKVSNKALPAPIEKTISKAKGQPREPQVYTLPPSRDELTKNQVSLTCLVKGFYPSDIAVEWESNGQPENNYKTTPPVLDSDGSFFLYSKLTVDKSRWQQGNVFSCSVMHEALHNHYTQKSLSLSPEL

[1] = test system: Human Umbilical Vein Endothelial Cells (HUVECS)
Description: The ability of compositions comprising a TKPPR monomer and a TKPPR multimer to inhibit ^125I-VEGF binding to endothelial cells was evaluated using HUVECs.

[2] = test system: Human aortic endothelial cells (HAEC); assay: TKPPR-conjugated fluorescent bead binding to HAEC, static; format: cell-based
Description: Human aortic endothelial cells (HAEC) from Biowhittaker were grown as monolayers in EGM-MV medium from Biowhittaker according to the supplier's instructions.
Briefly, a frozen cryovial of cells (500,000 cells in about 1 mL) was thawed for 2-3 minutes in a 37° C. water bath and cells were seeded into a T-75 flask coated with collagen I (commercially available) containing 15 mL EGM-MV of medium pre-equilibrated with 5% CO2 atmosphere. Cells were incubated in a standard tissue culture incubator at 37° C. HAEC were subcultured for up to 3 additional passages, using the following protocol:
For binding studies and characterization, pelleted cells were diluted to a concentration of 16,560 cells per mL, and 0.5 mL was seeded into each well of an 8-well chamber slide (Collagen I-coated, Becton Dickinson) to generate a seeding density of 12,000 cells/cm^2. Cells seeded into chamber slides were used for assays after 7 to 10 days, and were not further propagated.
TKPPR (see preparation described in the Example 1) was attached to red fluorescent carboxylate-modified FluoSpheres™ (Molecular Probes), which are 2.0 μm microspheres provided at 3.9×10^9 particles/mL of distilled water. 1.0 mg TKPPR was combined with 0.5 mLof 50 mM MES buffer (2-[N-Morpholino]ethanesulfonic acid, (commercially available), pH 6.0 and 0.2 mL FluoSpheres (7.8×10^8 spheres) in a 1.5 mL Eppendorf snap top, polypropylene centrifuge tube and rotated for 30 min at room temperature (RT). Then 2.8 mg EDAC (1-ethyl-3-(3-dimethylaminopropyl)carbodiimide hydrochloride, (commercially available) in 0.025 mL MES was added and the tube was rotated for 2 h at RT. Following the addition of 0.005 mL 1 N NaOH and 5.7 mg glycine in 0.025 mL MES, the tube was rotated for 30 min more at RT. The beads were then washed by employing three cycles of centrifugation at 14,000 rpm (20,800× g) in an Eppendorf 5417R centrifuge for 15 min, discarding the resulting supernatant, and resuspending in D-PBS. Storage was at 4° C. in 0.4 mL DPBS containing 0.05% NaN3 (final bead concentration was about 1.95×10^9/mL).
Final bead concentration was 1.95×10^7/mL. […]
Bead binding and localization was assessed at 200× magnification using the same microscopy equipment as described above. […] Finally, the processed images were inverted into black on a white background using Scion Image software (version beta 3b) and the integrated density was measured with the whole field selected.
The incubation time was decreased to 15 min on an orbital shaker, and the washes (3) were carried out using D-PBS containing 0.1% Tween 20 (Sigma). […] TKPPR-bead binding was quantitated in three fields, the other bead types were quantitated in one field only. Bound beads were quantitated by manual counting.

HAEC = assay: TKPPR-bead binding to endothelial cells under flow; format: cell-based, human; conditions: flow 1.91 mL/min, 37° C.
Description: Circular 40 mm diameter glass coverslips (Bioptechs, Cat No. 40-1313-0319) were first derivative by dipping in 3-aminopropyltriethoxysilane (Pierce, Cat No. 80370ZZ), 20% in acetone (HPLC grade, Sigma Aldrich Cat No. 27,072-5), rinsed in acetone, and air-dried. After autoclaving, the derivatized coverslips were placed into 60 mm round, sterile culture dishes, one coverslip per dish. Five mL of a Collagen I solution (Becton Dickinson, Cat No. 40236), 41.6 μg/mL in 20 mM acetic acid (adjusted to pH 6.7 with NaOH), was added to each coverslip-containing dish. After 15 min, 0.25 mL of 11.5 mg/mL bis(sulfosuccinimidyl) suberate (Pierce, Cat No. 21580ZZ) was added to each dish and mixed in by swirling. After a 105-minute incubation, the dishes were drained and 5 mL of sterile TBS (20 mM Tris-HCl, pH 7.5, 140 mM NaCl) was added to each dish. […]
Coverslips containing confluent HAEC were mounted into a Bioptechs FCS2 parallel plate flow cell mounted on an Olympus IMT-2 inverted microscope. […] Wall shear stress T, in dynes/cm^2, was calculated using the equation (Lawrence et al., Blood 75:227-237, 1990): [formula]
Bead binding of equal numbers of red fluorescent beads conjugated with TKPPR and green fluorescent beads conjugated with glycine was monitored after increasing lengths of perfusion and variable lengths of subsequent washing with the same solution lacking microspheres.

pKd (Neuropilin-1/Fc): 7.30 to 7.60 | fold more potent than the monomer (NP-1/Fc): 230 to 330 fold | pIC50 (NP-1/Fc; 250 pM 125I-VEGF165, 4° C., 2 hours): 6.89 | inhibition of 125I-VEGF165 binding to KDR (KDR-Fc): none
Compound: C/C(=N\O)C(C)(C)NOCCNC(C)(C)/C(CCNC(=O)CCCCCC(=O)NCC(=O)N(CCC(=O)NCC(=O)N(CCC(=O)NCCOCCOCC(=O)N[C@H](C(=O)N[C@@H](CCCCN)C(=O)N1CCC[C@H]1C(=O)N1CCC[C@H]1C(=O)N[C@@H](CCCNC(=N)N)C(=O)O)[C@@H](C)O)CCC(=O)NCCOCCOCC(=O)N[C@H](C(=O)N[C@@H](CCCCN)C(=O)N1CCC[C@H]1C(=O)N1CCC[C@H]1C(=O)N[C@@H](CCCNC(=N)N)C(=O)O)[C@@H](C)O)CCC(=O)NCC(=O)N(CCC(=O)NCCOCCOCC(=O)N[C@H](C(=O)N[C@@H](CCCCN)C(=O)N1CCC[C@H]1C(=O)N1CCC[C@H]1C(=O)N[C@@H](CCCNC(=N)N)C(=O)O)[C@@H](C)O)CCC(=O)NCCOCCOCC(=O)N[C@H](C(=O)N[C@@H](CCCCN)C(=O)N1CCC[C@H]1C(=O)N1CCC[C@H]1C(=O)N[C@@H](CCCNC(=N)N)C(=O)O)[C@@H](C)O)=N/O [BRU-326]
pIC50 [1]: 5.00

Compound: GRGDSP
Integrated density of bound beads ([2]; Experiment 1, 1.95×10^7 beads/mL, 30 min, HAEC monolayer): 28.59 arbitrary units | Number of bound beads ([2]; Experiment 2, 4.9×10^6 beads/mL, 15 min, manual counting, TKPPR average of three fields, others one field): 2

Compound: Glycine
Beads bound at 1.53 dynes/cm^2 (HAEC): 10
